Among the data in patent US8252945B2, “Protective agent for retinal neuronal cell comprising indazole derivative as active ingredient” (UBE Industries, Ltd., priority 2005, dated 2012) are melting point values, retold here.

With `CC(C)(N)c1ccc(-c2ccc3[nH]ncc3c2OC(F)F)nc1.Cl.Cl.Cl`, the melting point (commonly the temperature, or range, at which the solid turns liquid) fell in the range of 170 to 173 °C.
Consider `CC(C)(N)c1ccc(-c2ccc3[nH]ncc3c2[N+](=O)[O-])cc1.Cl`, for which the melting point is 255 to 261 °C (dec.).
The result for `CN(C)/C=C/C(=O)c1c(-c2ccc(C(C)(C)NC(=O)OC(C)(C)C)cc2)ccc2nn(C3CCCCO3)cc12` (centres unmarked) [Compound 14, 5-[4-(1-tert-butoxycarbonylamino-1-methylethyl)phenyl]-4-(3-dimethylaminoacryloyl)-2-(tetrahydropyran-2-yl)-2H-indazole] reads 191 to 194 °C.
Turning to `CC(C)(N)c1ccc(-c2ccc3[nH]ncc3c2C#N)cc1.Cl`, the melting point lay in the range of 270 to 272 °C.
Consider `CN(C)c1c(-c2ccc(C(C)(C)N)cc2)ccc2[nH]ncc12.Cl.Cl.Cl`, for which the melting point was 219 to 224 °C (dec.).
In the case of `COc1c(-c2ccc(C(C)(C)N)cc2)ccc2[nH]ncc12.Cl.Cl`, the melting point was 258 to 261 °C (dec.).
The value for `CC(C)(N)c1ccc(-c2ccc3[nH]ncc3c2C2CC2)nc1.Cl.Cl.Cl` was 209 to 213 °C (dec.).
The result for `CC(C)(N)c1ccc(-c2ccc3[nH]ncc3c2-c2ccno2)cc1.Cl.Cl` reads 256 to 258 °C (dec.).
